According to ChEMBL document CHEMBL4715760, “Balancing potency, metabolic stability and permeability in pyrrolopyrimidine-based EGFR inhibitors” (Eur J Med Chem, 2016):

Key:
[1] = Metabolic stability in pooled human liver microsomes assessed as Clearance at 3 uM measured up to 45 mins in presence of NADPH by LC-MS/MS analysis; type: ADME, Microsome; details: pooled liver microsomes, read-out: CLH
[2] = Apparent permeability from basolateral to apical side in human Caco2 cells at 10 uM measured for 120 mins by LC-MS/MS analysis; details: Caco-2
[3] = Apparent permeability from apical to basolateral side in human Caco2 cells at 10 uM measured for 120 mins by LC-MS/MS analysis; details: Caco-2
[4] = Metabolic stability in pooled human liver microsomes assessed as half life at 3 uM measured up to 45 mins in presence of NADPH by LC-MS/MS analysis; type: ADME, Microsome; details: pooled liver microsomes
[5] = target: Voltage-gated inwardly rectifying potassium channel KCNH2 (Homo sapiens, UniProt Q12809); experiment: Inhibition of human ERG expressed in CHO cells at -80 mV holding potential by IonWorks patch-clamp electrophysiology assay
Voltage-gated inwardly rectifying potassium channel KCNH2, sequence (Q12809 whole entry): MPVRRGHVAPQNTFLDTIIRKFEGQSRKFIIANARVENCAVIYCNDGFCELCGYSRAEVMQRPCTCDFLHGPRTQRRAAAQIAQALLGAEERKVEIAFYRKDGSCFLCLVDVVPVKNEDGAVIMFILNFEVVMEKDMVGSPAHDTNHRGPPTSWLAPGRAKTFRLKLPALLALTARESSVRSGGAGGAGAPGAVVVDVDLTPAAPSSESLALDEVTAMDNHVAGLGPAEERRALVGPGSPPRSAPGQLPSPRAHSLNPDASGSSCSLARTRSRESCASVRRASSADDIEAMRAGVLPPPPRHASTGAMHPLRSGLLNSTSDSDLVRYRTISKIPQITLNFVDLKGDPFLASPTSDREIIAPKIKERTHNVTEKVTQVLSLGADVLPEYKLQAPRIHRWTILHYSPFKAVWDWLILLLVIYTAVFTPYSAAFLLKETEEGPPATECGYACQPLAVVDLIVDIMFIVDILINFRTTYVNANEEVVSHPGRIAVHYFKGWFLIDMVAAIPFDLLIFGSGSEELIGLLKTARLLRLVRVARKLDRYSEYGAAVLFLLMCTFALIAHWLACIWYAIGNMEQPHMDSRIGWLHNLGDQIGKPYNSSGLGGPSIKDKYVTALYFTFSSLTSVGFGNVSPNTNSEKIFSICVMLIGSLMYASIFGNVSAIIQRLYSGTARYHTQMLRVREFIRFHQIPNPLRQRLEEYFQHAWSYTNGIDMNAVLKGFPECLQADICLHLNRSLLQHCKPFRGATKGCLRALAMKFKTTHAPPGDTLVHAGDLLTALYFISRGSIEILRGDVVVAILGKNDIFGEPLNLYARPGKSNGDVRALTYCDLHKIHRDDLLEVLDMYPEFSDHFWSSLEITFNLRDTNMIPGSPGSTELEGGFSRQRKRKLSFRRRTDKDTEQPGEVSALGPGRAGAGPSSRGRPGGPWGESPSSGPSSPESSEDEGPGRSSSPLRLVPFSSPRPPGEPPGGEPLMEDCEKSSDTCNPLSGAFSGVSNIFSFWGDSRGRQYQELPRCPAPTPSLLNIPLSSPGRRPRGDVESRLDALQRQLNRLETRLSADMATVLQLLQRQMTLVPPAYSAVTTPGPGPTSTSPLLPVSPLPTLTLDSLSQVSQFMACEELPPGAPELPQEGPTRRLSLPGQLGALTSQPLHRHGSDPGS

[6] = Protein binding in plasma (unknown origin) assessed as unbound fraction at 5 uM by LC-MS/MS based equilibrium dialysis analysis
[7] = target: MAP kinase-activated protein kinase 2 (Homo sapiens) (UniProt P49137); experiment: Inhibition of recombinant human His-tagged full length MAPKAPK2 expressed in Escherichia coli expression system at 500 nM using Ser/Thr 04 as substrate incubated for 1 hr in presence of ATP at its Km concentration by Z'-LYTE assay relative to control
MAP kinase-activated protein kinase 2 (Homo sapiens), sequence (P49137 whole entry, looked up): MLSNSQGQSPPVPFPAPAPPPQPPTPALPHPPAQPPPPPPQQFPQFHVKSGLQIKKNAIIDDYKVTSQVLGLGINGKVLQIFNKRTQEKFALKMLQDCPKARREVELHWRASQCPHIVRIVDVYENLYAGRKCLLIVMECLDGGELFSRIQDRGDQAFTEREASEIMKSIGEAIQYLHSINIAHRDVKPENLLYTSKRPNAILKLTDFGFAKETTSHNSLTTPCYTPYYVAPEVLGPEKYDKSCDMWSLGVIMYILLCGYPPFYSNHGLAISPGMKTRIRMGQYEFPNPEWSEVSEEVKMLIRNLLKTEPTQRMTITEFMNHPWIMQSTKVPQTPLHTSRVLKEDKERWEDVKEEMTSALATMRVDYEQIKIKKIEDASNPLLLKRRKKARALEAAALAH

[8] = target: Inhibitor of nuclear factor kappa-B kinase subunit beta (Homo sapiens) (UniProt O14920); experiment: Inhibition of recombinant human full-length GST-tagged IKBKB expressed in baculovirus expression system at 500 nM using Ser/Thr 05 as substrate incubated for 1 hr in presence of ATP at its Km concentration by Z'-LYTE assay relative to control
Inhibitor of nuclear factor kappa-B kinase subunit beta (Homo sapiens), sequence (O14920 whole entry): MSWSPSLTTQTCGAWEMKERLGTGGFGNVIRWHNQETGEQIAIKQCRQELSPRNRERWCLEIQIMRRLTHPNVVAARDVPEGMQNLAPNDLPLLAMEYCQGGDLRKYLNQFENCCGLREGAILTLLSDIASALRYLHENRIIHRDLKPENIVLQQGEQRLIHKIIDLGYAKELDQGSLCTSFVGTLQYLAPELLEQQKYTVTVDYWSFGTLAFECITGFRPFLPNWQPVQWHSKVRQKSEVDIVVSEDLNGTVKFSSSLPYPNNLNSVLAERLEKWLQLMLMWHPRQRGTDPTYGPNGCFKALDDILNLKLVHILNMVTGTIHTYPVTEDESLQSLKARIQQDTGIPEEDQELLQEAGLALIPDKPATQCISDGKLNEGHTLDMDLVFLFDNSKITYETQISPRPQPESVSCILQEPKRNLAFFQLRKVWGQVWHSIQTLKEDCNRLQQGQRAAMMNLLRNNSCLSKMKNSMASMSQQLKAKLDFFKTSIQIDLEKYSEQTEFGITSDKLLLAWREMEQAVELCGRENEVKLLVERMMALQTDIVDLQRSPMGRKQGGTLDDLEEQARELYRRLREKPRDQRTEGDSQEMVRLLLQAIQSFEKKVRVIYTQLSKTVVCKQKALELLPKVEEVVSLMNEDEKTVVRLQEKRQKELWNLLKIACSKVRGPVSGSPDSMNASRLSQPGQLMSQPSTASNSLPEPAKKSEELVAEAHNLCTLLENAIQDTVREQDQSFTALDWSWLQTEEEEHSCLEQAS

[9] = system: A-431; experiment: Antiproliferative activity against human A431 cells assessed as inhibition of cell growth incubated for 72 hrs by Cell Titer Glo luminescent cell viability assay; type: functional, cell-based; details: A-431, 72 h

SMILES	microsomal CLint at 3 µM [1]	Papp B→A at 2 h, 10 µM [2]	Papp A→B at 2 h, 10 µM [3]	half-life at 3 µM [4]	IC50 [5]	fraction unbound at 5 µM [6]	inhibition [7]	inhibition [8]	IC50 [9]
C#Cc1cccc(Nc2ncnc3cc(OCCOC)c(OCCOC)cc23)c1 [ERLOTINIB]	43.8 µL/min/mg	31 ×10⁻⁶ cm/s	38.8 ×10⁻⁶ cm/s	31.7 min	> 25000 nM	0.117	-1%	-5%	
COc1ccccc1-c1cc2c(N[C@H](CO)c3ccccc3)ncnc2[nH]1									400 nM
